Source: patent US11597724B2, “Herbicidally active 3-phenylisoxazoline-5-carboxamides of tetrahydro and dihydrofuran carboxylic acids and esters” (Bayer Aktiengesellschaft, priority 2017, dated 2023)

Columns and labels:
Type in all cases: in vivo
[1] = system: Lolium rigidum; test: Post-emergence herbicidal activity against LOLRI; conditions: dosage 320 g/ha, rated about 3 weeks after treatment
How it was run: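 Greenhouse-grown plants sprayed post-emergence at the one-leaf stage, 2 to 3 weeks after sowing, with WP or EC formulations plus 0.5% additive at 600 l/ha water. Activity rated visually after about 3 weeks versus untreated controls (100% = plants dead, 0% = like control).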

[2] = system: Pharbitis purpurea; test: Pre-emergence herbicidal activity against PHBPU; conditions: dosage 80 g/ha
Description: (§1) 1. Pre-Emergence Herbicidal Action and Crop Plant Compatibility Seeds of monocotyledonous and dicotyledonous weed plants and crop plants are placed in plastic or wood fiber pots and covered with soil. The compounds of the invention, formulated in the form of wettable powders (WP) or as emulsion concentrates (EC), are then applied onto the surface of the covering soil as aqueous suspension or emulsion with addition of 0.5% additive at a water application rate of 600 l/ha (converted). After the treatment, the pots are placed in a greenhouse and kept under good growth conditions for the trial plants. After about 3 weeks, the effect of the preparations is scored visually in comparison with untreated controls as percentages. For example, 100% activity=the plants have died, 0% activity=like control plants. LOLRI: Lolium rigidum PHBPU: Pharbitis purpurea

[3] = system: Echinochloa crus-galli; test: Post-emergence herbicidal activity against ECHCG; conditions: dosage 320 g/ha, rated about 3 weeks after treatment
How it was run: (§2)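 Greenhouse pot plants sprayed post-emergence at one-leaf stage (2-3 weeks after sowing) with WP or EC formulations, 0.5% additive, 600 l/ha water. Visual rating about 3 weeks later versus untreated controls: 100% = plants dead, 0% = like control.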

[4] = system: Avena fatua; test: Pre-emergence herbicidal activity against AVEFA; conditions: dosage 80 g/ha
Description: as §1, with “AMARE: Amaranthus retroflexus AVEFA: Avena fatua” for “LOLRI: Lolium rigidum PHBPU: Pharbitis purpurea”

[5] = system: Viola tricolor; test: Post-emergence herbicidal activity against VIOTR; conditions: dosage 320 g/ha, rated about 3 weeks after treatment
How it was run: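 Greenhouse plants in sandy loam treated at one-leaf stage, 2 to 3 weeks after sowing, by spraying WP or EC formulations with 0.5% additive at 600 l/ha water. Activity rated visually after about 3 weeks versus untreated controls, 100% = plants dead, 0% = like control.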

[6] = system: Hordeum murinum; test: Post-emergence herbicidal activity against HORMU; conditions: dosage 320 g/ha
How it was run: as §2

[7] = system: Alopecurus myosuroides; test: Post-emergence herbicidal activity against ALOMY; conditions: dosage 320 g/ha, rated about 3 weeks after treatment
How it was run: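 Greenhouse-grown plants treated at one-leaf stage, 2 to 3 weeks after sowing, with WP or EC formulations sprayed as aqueous suspension/emulsion plus 0.5% additive at 600 l/ha. Activity rated visually about 3 weeks later versus untreated controls (100% = plants dead, 0% = like control).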

[8] = system: Amaranthus retroflexus; test: Pre-emergence herbicidal activity against AMARE; conditions: dosage 80 g/ha
How it was run: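 Seeds sown in pots, covered with soil; WP or EC formulations sprayed onto soil surface as aqueous suspension/emulsion with 0.5% additive at 600 l/ha water. Pots kept in greenhouse ~3 weeks, then effect scored visually versus untreated controls as % (100% = plants dead, 0% = like control).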

| Compound | Post-emergence herbicidal activity against LOLRI in % [1] [%] | Pre-emergence herbicidal activity against PHBPU in % [2] [%] | Post-emergence herbicidal activity against ECHCG in % [3] [%] | Pre-emergence herbicidal activity against AVEVA in % (AVEFA) [4] [%] | Post-emergence herbicidal activity against VIOTR in % [5] [%] | Post-emergence herbicidal activity against HORMU in % [6] [%] | Post-emergence herbicidal activity against ALOMY in % [7] [%] | Pre-emergence herbicidal activity against AMARE in % [8] [%] | pest or weed control at 320 g/ha ([1]; Lolium rigidum, 504 h) [%] | pest or weed control at 80 g/ha ([2]; Ipomoea purpurea, 504 h) [%] | pest or weed control at 320 g/ha ([3]; Echinochloa crus-galli, 504 h) [%] | pest or weed control at 320 g/ha ([5]; Viola tricolor, 504 h) [%] | pest or weed control at 320 g/ha ([6]; Hordeum murinum, 504 h) [%] | pest or weed control at 320 g/ha ([7]; Alopecurus myosuroides, 504 h) [%] |
| --- | --- | --- | --- | --- | --- | --- | --- | --- | --- | --- | --- | --- | --- | --- |
| CC1(C(=O)NC2COC(C(=O)O)C2)CC(c2cc(F)cc(F)c2)=NO1 (mixture of isomers) [I-41] | 100 | 90 | 100 | 100 | 80 | 100 | 100 | 90 |  |  |  |  |  |  |
| CC(C)(C)OC(=O)C1CC(NC(=O)C2(C)CC(c3cc(F)cc(F)c3)=NO2)CO1 (mixture of isomers) [I-42] | 100 | 90 | 100 | 90 | 90 | 100 | 100 | 100 |  |  |  |  |  |  |
| CC1(C(=O)NC2COC(C(=O)OCc3ccccc3)C2)CC(c2cc(F)cc(F)c2)=NO1 (mixture of isomers) [I-45] | 100 | 90 | 100 | 100 | 90 | 100 | 100 | 100 |  |  |  |  |  |  |
| COC(=O)C1CC(NC(=O)C2(C)CC(c3cc(F)cc(F)c3)=NO2)CO1 (mixture of isomers) [I-48] | 90 | 90 | 90 | 100 | 80 | 90 | 90 | 100 |  |  |  |  |  |  |
| C=C[C@]1(C(=O)N[C@H]2CO[C@@H](C(=O)OC)C2)CC(c2cc(F)cc(F)c2)=NO1 (single isomer, unassigned) [I-11] |  |  |  | 100 |  |  |  | 100 | 100 | 100 | 90 | 90 | 100 | 90 |
| CC(C)OC(=O)C1CC(NC(=O)C2(C)CC(c3cc(F)cc(F)c3)=NO2)CO1 (stereo not drawn) [I-44] | 100 | 80 | 100 | 90 | 90 | 100 | 100 | 90 |  |  |  |  |  |  |
